Source: patent US20250221410A1, “SUBSTITUTED 2-C-AZINES AND SALTS THEREOF, AND USE THEREOF AS HERBICIDAL ACTIVE SUBSTANCES” (BAYER AKTIENGESELLSCHAFT, priority 2022, published 2025)

Assays:
Format in all cases: in vivo
[1] = system: ECHCG: Echinochloa crus-galli; test: Pre-emergence herbicide efficacy at 1280 g/ha, ECHCG; settings: visual scoring after about 3 weeks vs untreated controls
Text: (§1) Seeds of mono- and dicotyledonous weed plants were placed in plastic pots in sandy loam soil (doubly sown with one species each of mono- or dicotyledonous weed plants per pot) and covered with soil. The compounds of the invention, formulated in the form of wettable powders (WP) or as emulsion concentrates (EC), were then applied to the surface of the covering soil as aqueous suspension or emulsion with addition of 0.5% additive at a water application rate of 600 litres per hectare (converted). After the treatment, the pots were placed in a greenhouse and kept under good growth conditions for the test plants. After about 3 weeks, the efficacy of the preparations was scored visually in comparison with untreated controls as percentages. For example, 100% activity=the plants have died, 0% activity=like control plants. Tables C1 to C12 below show the effects of selected compounds of the general formula (I) according to Table 1 on various harmful plants and at an application rate corresponding to 1280 g/ha, which were obtained by the trial procedure specified above.

[2] = system: ABUTH: Abutilon theophrasti; test: Pre-emergence herbicide efficacy at 1280 g/ha, ABUTH; settings: visual scoring after about 3 weeks vs untreated controls
Text: as §1

[3] = system: AMARE: Amaranthus retroflexus; test: Pre-emergence herbicide efficacy at 1280 g/ha, AMARE; settings: visual scoring after about 3 weeks vs untreated controls
Text: as §1

[4] = system: ABUTH: Abutilon theophrasti; test: Post-emergence herbicidal efficacy at 1280 g/ha, ABUTH; settings: rated visually after about 3 weeks vs untreated controls, 100% = plants have died, 0% = like control plants
Description: (§2) Seeds of mono- and dicotyledonous weed plants were placed in plastic pots in sandy loam soil (doubly sown with in each case one species of mono- or dicotyledonous weed plants per pot), covered with soil and cultivated in a greenhouse under controlled growth conditions. 2 to 3 weeks after sowing, the test plants were treated at the one-leaf stage. The compounds of the invention, formulated in the form of wettable powders (WP) or as emulsion concentrates (EC), were applied to the green parts of the plants as aqueous suspension or emulsion with addition of 0.5% additive at a water application rate equivalent to 600 litres per hectare. After the test plants had been kept in the greenhouse under optimum growth conditions for about 3 weeks, the activity of the preparations was rated visually in comparison to untreated controls. For example, 100% activity=the plants have died, 0% activity=like control plants. Tables A1 to A12 below show the effects of selected compounds of the general formula (I) according to Table 1 on various harmful plants and at an application rate corresponding to 1280 g/ha, which were obtained by the trial procedure specified above.

[5] = system: KCHSC: Kochia scoparia; test: Post-emergence herbicidal efficacy at 1280 g/ha, KCHSC; settings: visual rating about 3 weeks after treatment vs untreated controls
Description: as §2

[6] = system: DIGSA: Digitaria sanguinalis; test: Pre-emergence herbicide efficacy at 1280 g/ha, DIGSA; settings: visual scoring after about 3 weeks vs untreated controls
Text: as §1

[7] = system: VERPE: Veronica persica; test: Post-emergence herbicidal efficacy at 1280 g/ha, VERPE; settings: visual rating about 3 weeks after treatment vs untreated controls
Description: as §2

[8] = system: STEME: Stellaria media; test: Post-emergence herbicidal efficacy at 1280 g/ha, STEME; settings: visual rating about 3 weeks after treatment vs untreated controls
Description: as §2

[9] = system: POAAN: Poa annua; test: Post-emergence herbicidal efficacy at 1280 g/ha, POAAN; settings: visual rating about 3 weeks after treatment vs untreated controls
Description: as §2

[10] = system: POAAN: Poa annua; test: Pre-emergence herbicide efficacy at 1280 g/ha, POAAN; settings: visual scoring after about 3 weeks vs untreated controls
Text: as §1

[11] = system: SETVI: Setaria viridis; test: Pre-emergence herbicide efficacy at 1280 g/ha, SETVI; settings: visual scoring vs untreated controls
Text: as §1

[12] = system: STEME: Stellaria media; test: Pre-emergence herbicide efficacy at 1280 g/ha, STEME; settings: visual scoring vs untreated controls
Text: as §1

[13] = system: VERPE: Veronica persica; test: Pre-emergence herbicide efficacy at 1280 g/ha, VERPE; settings: visual scoring vs untreated controls
Text: as §1

[14] = system: SETVI: Setaria viridis; test: Post-emergence herbicidal efficacy at 1280 g/ha, SETVI; settings: visual rating about 3 weeks after treatment vs untreated controls
Description: as §2

[15] = system: AMARE: Amaranthus retroflexus; test: Post-emergence herbicidal efficacy at 1280 g/ha, AMARE; settings: rated visually after about 3 weeks vs untreated controls, 100% = plants have died, 0% = like control plants
Description: as §2

[16] = system: KCHSC: Kochia scoparia; test: Pre-emergence herbicide efficacy at 1280 g/ha, KCHSC; settings: visual scoring after about 3 weeks vs untreated controls
Text: as §1

[17] = system: AMARE: Amaranthus retroflexus; test: Post-emergence herbicidal efficacy at 80 g/ha, AMARE; settings: visual rating about 3 weeks after treatment vs untreated controls
Description: Seeds of monocotyledonous and dicotyledonous weeds and crop plants were placed in sandy loam in plastic or organic planting pots, covered with soil and cultivated in a greenhouse under controlled growth conditions. 2 to 3 weeks after sowing, the test plants were treated at the one-leaf stage. The compounds of the invention, formulated in the form of wettable powders (WP) or as emulsion concentrates (EC), were then sprayed onto the green parts of the plants as aqueous suspension or emulsion with addition of 0.5% additive at a water application rate of 600 l/ha (converted). After the test plants had been kept in the greenhouse under optimum growth conditions for about 3 weeks, the activity of the preparations was rated visually in comparison to untreated controls. For example, 100% activity=the plants have died, 0% activity=like control plants. Tables B1 to B10 below show the effects of selected compounds of the general formula (I) according to Table 1 on various harmful plants and an application rate corresponding to 80 g/ha, which were obtained by the experimental procedure mentioned above.

Row | SMILES | Pre-emergence efficacy against ECHCG [1] | Pre-emergence efficacy against ABUTH [2] | Pre-emergence efficacy against AMARE [3] | Post-emergence efficacy at 1280 g/ha against ABUTH in % [4] | Post-emergence efficacy against KCHSC [5] | Pre-emergence efficacy against DIGSA [6] | Post-emergence efficacy against VERPE [7] | Post-emergence efficacy against STEME [8] | Post-emergence efficacy against POAAN [9] | Pre-emergence efficacy against POAAN [10] | Pre-emergence efficacy against SETVI in % [11] | Pre-emergence efficacy against STEME in % [12] | Pre-emergence efficacy against VERPE in % [13] | Post-emergence efficacy against SETVI [14] | Post-emergence efficacy at 1280 g/ha against AMARE in % [15] | Pre-emergence efficacy against KCHSC [16] | Post-emergence efficacy against AMARE [17]
1 | Fc1ccc(Cc2ccccc2Oc2ncc(Cl)cc2F)nc1 [Example 1-103] | 90% | 100% | 100% | 100% | 90% | 90% | 100% | 100% | 100% | 90% | 100% | 100% | 90% | 90% | 100% | – | –
2 | Cc1cc(C)c(-c2cc(C(F)F)no2)c(C(C#N)c2ncc(Cl)cn2)n1 (centres unmarked) [Example 2-6] | – | 100% | 90% | – | – | 90% | – | – | – | – | – | 100% | – | – | – | – | –
3 | Fc1ccc(-c2ccccc2Cc2ncc(Cl)cc2F)cc1F [Example 1-127] | – | – | 100% | 100% | 100% | 90% | 100% | 100% | 100% | 90% | 100% | 90% | 90% | 90% | 100% | 90% | –
4 | O=S(=O)(CCCC(F)(F)F)Oc1c(F)cccc1Cc1ncc(F)cn1 [Example 1-15] | – | – | – | – | – | – | – | – | – | – | – | – | – | – | – | – | 90%
5 | Clc1cnc(Cc2ccccc2Sc2ccc(Cl)cc2Cl)nc1 [Example 1-137] | – | – | 100% | 90% | 90% | – | 90% | 90% | 90% | 90% | 100% | 100% | – | – | 100% | – | –
6 | N#CC(c1ccc(Cl)cn1)c1ccccc1-c1ccc(F)c(F)c1 (centres unmarked) [Example 1-80] | – | 90% | 100% | – | – | – | 90% | 90% | – | 90% | – | 100% | – | – | 100% | – | –
7 | O=S(=O)(CCCC(F)(F)F)Oc1c(Cl)cccc1Cc1ncc(Cl)cn1 [Example 1-18] | – | – | – | – | – | – | – | – | – | – | – | – | – | – | – | – | 90%
8 | Fc1ccc(Sc2ccccc2Cc2ccc(Cl)cn2)cc1 [Example 1-105] | 90% | – | 100% | 90% | 90% | – | 90% | 90% | 90% | 100% | – | 90% | 100% | – | 90% | – | –
9 | Fc1cc(Cl)cnc1Oc1ccccc1Cc1ncccn1 [Example 1-77] | – | 90% | 100% | – | – | 90% | 90% | 90% | 90% | 90% | – | 90% | – | – | 90% | – | –
10 | N#CC(c1ncc(Cl)cn1)c1ccccc1Cc1ccc(F)cc1 (centres unmarked) [Example 1-69] | – | 100% | – | – | 90% | – | 100% | 90% | – | – | – | – | – | – | 90% | – | –
